Measurements taken from patent publication US10765114B2, “4-amino-6-(pyridyl and 2-substitutedphenyl)-picolinates and 6-amino-2-(pyridyl and 2-substitutedphenyl)-pyrimidine-4-carboxylates and their use as herbicides” (Dow AgroSciences LLC, priority 2013, dated 2020).
Like-named read-outs stand apart in the source and are kept apart here.

Legend:
[1] = system: Key Broadleaf Weed and Crop Species; assay: Post-Emergent Test II (Table 5); format: in vivo; conditions: post-emergence, 336 h; for pest or weed control at 70 g/ha: application rate 70 (kg ai/ha; footnote: g ai/ha); for pest or weed control at 140 g/ha: application rate 140 (kg ai/ha; footnote: g ai/ha)
Procedure, shortened: (§1)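 Post-emergence greenhouse spray, 1st-2nd true leaf stage; track sprayer, 187 L/ha; acetone/DMSO stock diluted in aqueous acetone/IPA/DMSO with Atplus 411F and Triton X-155; rates 1× to 1/16×; subirrigated; visual injury 0 (none) to 100% (complete kill) at 14 days.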

[2] = system: Key Grass and Sedge Weeds as well as Grass Crops; assay: Post-Emergent Test II (Table 6); format: in vivo; conditions: post-emergence, 336 h, 14 days after application; for pest or weed control at 70 g/ha: 70 g ai/ha; for pest or weed control at 140 g/ha: 140 g ai/ha
Procedure, shortened: as §1

[3] = Abutilon theophrasti, ABUTH: velvetleaf (Abutilon theophrasti), read-out: Visual Growth Reduction (%) 14 Days After Application ABUTH
[4] = Amaranthus retroflexus, AMARE: redroot pigweed (Amaranthus retroflexus), read-out: Visual Growth Reduction (%) 14 Days After Application AMARE
[5] = Brassica napus, BRSSS: oilseed rape, canola (Brassica napus), read-out: Visual Growth Reduction (%) 14 Days After Application BRSSS
[6] = Chenopodium album, CHEAL: lambsquarters (Chenopodium album), read-out: Visual Growth Reduction (%) 14 Days After Application CHEAL
[7] = Euphorbia heterophylla, EPHHL: wild poinsettia (Euphorbia heterophylla), read-out: Visual Growth Reduction (%) 14 Days After Application EPHHL
[8] = Helianthus annuus, HELAN: sunflower (Helianthus annuus), read-out: Visual Growth Reduction (%) 14 Days After Application HELAN
[9] = Viola tricolor, VIOTR: wild pansy (Viola tricolor), read-out: Visual Growth Reduction (%) 14 Days After Application VIOTR
[10] = CYPSS, read-out: Visual Growth Reduction (%) 14 Days After Application CYPSS
[11] = DIGSA: crabgrass (Digitaria sanguinalis), read-out: Visual Growth Reduction (%) 14 Days After Application DIGSA
[12] = ECHSS, read-out: Visual Growth Reduction (%) 14 Days After Application ECHSS
[13] = ORYSS (crop), read-out: Visual Growth Reduction (%) 14 Days After Application ORYSS
[14] = SETFA: giant foxtail (Setaria faberi), read-out: Visual Growth Reduction (%) 14 Days After Application SETFA
[15] = SORVU: grain sorghum (Sorghum vulgare), read-out: Visual Growth Reduction (%) 14 Days After Application SORVU
[16] = TRZSS (crop), read-out: Visual Growth Reduction (%) 14 Days After Application TRZSS
[17] = ZEAMX: maize, corn (Zea mays), read-out: Visual Growth Reduction (%) 14 Days After Application ZEAMX

Row | Compound | pest or weed control at 70 g/ha [1, 3] [%] | pest or weed control at 140 g/ha [1, 3] [%] | pest or weed control at 70 g/ha [1, 4] [%] | pest or weed control at 140 g/ha [1, 4] [%] | pest or weed control at 70 g/ha [1, 5] [%] | pest or weed control at 140 g/ha [1, 5] [%] | pest or weed control at 70 g/ha [1, 6] [%] | pest or weed control at 140 g/ha [1, 6] [%] | pest or weed control at 70 g/ha [1, 7] [%] | pest or weed control at 140 g/ha [1, 7] [%] | pest or weed control at 70 g/ha [1, 8] [%] | pest or weed control at 140 g/ha [1, 8] [%] | pest or weed control at 70 g/ha [1, 9] [%] | pest or weed control at 140 g/ha [1, 9] [%] | pest or weed control at 70 g/ha [2, 10] [%] | pest or weed control at 140 g/ha [2, 10] [%] | pest or weed control at 70 g/ha [2, 11] [%] | pest or weed control at 140 g/ha [2, 11] [%] | pest or weed control at 70 g/ha [2, 12] [%] | pest or weed control at 140 g/ha [2, 12] [%] | other results
1 | Cc1c(-c2cc(N)c(Cl)c(C(=O)O)n2)ccc(Cl)c1F [Compound 52] | 95 to 100 | 95 to 100 | 95 to 100 | 95 to 100 | 95 to 100 | 95 to 100 | 95 to 100 | 95 to 100 | 75 to 84 | 85 to 94 | 95 to 100 | 95 to 100 | 85 to 94 | 85 to 94 | 85 to 94 | 95 to 100 | 0 to 29 | 30 to 44 | 30 to 44 | 45 to 59 | pest or weed control at 70 g/ha [2, 13]: 0 to 29%; pest or weed control at 140 g/ha [2, 13]: 0 to 29%; pest or weed control at 70 g/ha [2, 14]: 0 to 29%; pest or weed control at 140 g/ha [2, 14]: 45 to 59%; pest or weed control at 70 g/ha [2, 15]: 0 to 29%; pest or weed control at 140 g/ha [2, 15]: 30 to 44%; pest or weed control at 70 g/ha [2, 16]: 45 to 59%; pest or weed control at 140 g/ha [2, 16]: 60 to 74%; pest or weed control at 70 g/ha [2, 17]: 45 to 59%; pest or weed control at 140 g/ha [2, 17]: 60 to 74%; melting point: 160 to 162 °C
2 | Nc1c(Cl)c(C(=O)O)nc(-c2ccc(C(F)(F)F)nc2)c1Cl [Compound 33] | 0 to 29 | 0 to 29 | 60 to 74 | 95 to 100 | 0 to 29 | 30 to 44 | 85 to 94 | 85 to 94 | 75 to 84 | 75 to 84 | 85 to 94 | 95 to 100 | 0 to 29 | 0 to 29 | 95 to 100 | 95 to 100 | 45 to 59 | 60 to 74 | 60 to 74 | 60 to 74 | pest or weed control at 70 g/ha [2, 13]: 0 to 29%; pest or weed control at 140 g/ha [2, 13]: 0 to 29%; pest or weed control at 70 g/ha [2, 14]: 75 to 84%; pest or weed control at 140 g/ha [2, 14]: 75 to 84%; pest or weed control at 70 g/ha [2, 15]: 75 to 84%; pest or weed control at 140 g/ha [2, 15]: 75 to 84%; pest or weed control at 70 g/ha [2, 16]: 30 to 44%; pest or weed control at 140 g/ha [2, 16]: 45 to 59%; pest or weed control at 70 g/ha [2, 17]: 60 to 74%; pest or weed control at 140 g/ha [2, 17]: 60 to 74%; melting point: 155 to 158 °C
3 | COC(=O)c1nc(-c2ccc(Cl)c(F)c2C)c(F)c(N)c1Cl [Compound 68] | 95 to 100 | 95 to 100 | 95 to 100 | 95 to 100 | 85 to 94 | 95 to 100 | 95 to 100 | 95 to 100 | 0 to 29 | 0 to 29 | 95 to 100 | 95 to 100 | 30 to 44 | 30 to 44 | 0 to 29 | 0 to 29 | 0 to 29 | 0 to 29 | 0 to 29 | 0 to 29 | pest or weed control at 70 g/ha [2, 13]: 0 to 29%; pest or weed control at 140 g/ha [2, 13]: 0 to 29%; pest or weed control at 70 g/ha [2, 14]: 0 to 29%; pest or weed control at 140 g/ha [2, 14]: 0 to 29%; pest or weed control at 70 g/ha [2, 15]: 0 to 29%; pest or weed control at 140 g/ha [2, 15]: 0 to 29%; pest or weed control at 70 g/ha [2, 16]: 0 to 29%; pest or weed control at 140 g/ha [2, 16]: 0 to 29%; pest or weed control at 70 g/ha [2, 17]: 0 to 29%; pest or weed control at 140 g/ha [2, 17]: 0 to 29%; melting point: 154 to 156 °C
